Experimental data taken from paper PMC3250963, “Novel dimeric DOTA-coupled peptidic Y1-receptor antagonists for targeting of neuropeptide Y receptor-expressing cancers” (EJNMMI Research, 2011).
Bridge positions count the residues as written; N and C are the ends. Square brackets hold non-standard residues; d marks the D form. Peptide text beside a SMILES is read from it. I, II: the chains in the order shown. * marks the point of attachment. DOTA = O=C(O)CN1CCN(CC(=O)O)CCN(CC(=O)*)CCN(CC(=O)O)CC1; Nle = CCCC[C@H](N)C(=O)O; Dap = NC[C@H](N)C(=O)O

Experiments:
NPY Y2 receptor = biological target: T1, NPY Y2 receptor (Homo sapiens, UniProt P49146); assay: Receptor autoradiography competition binding (125I-hPYY) on SH-SY5Y cell membrane pellet sections; details: SH-SY5Y membrane pellets, 125I-hPYY displacement; n ≥ 3; read-out: Binding affinity Y2 (IC50)
T1 construct: SH-SY5Y cells endogenously expressing Y2; endogenous in cells; host or cells: SH-SY5Y
T1 sequence (P49146 1-381): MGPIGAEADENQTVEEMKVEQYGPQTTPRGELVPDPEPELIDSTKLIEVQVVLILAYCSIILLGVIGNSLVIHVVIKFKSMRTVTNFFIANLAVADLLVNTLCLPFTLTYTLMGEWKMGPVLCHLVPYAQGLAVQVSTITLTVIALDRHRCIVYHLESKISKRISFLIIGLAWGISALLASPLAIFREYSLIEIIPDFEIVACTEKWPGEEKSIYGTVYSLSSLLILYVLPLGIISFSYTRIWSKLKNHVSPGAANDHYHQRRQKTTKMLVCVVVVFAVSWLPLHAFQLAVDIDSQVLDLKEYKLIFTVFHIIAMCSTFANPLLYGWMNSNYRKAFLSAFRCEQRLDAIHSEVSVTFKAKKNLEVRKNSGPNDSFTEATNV
Protocol: (§1) The neuroepithelioma cell line SK-N-MC endogenously expressing the NPY Y1 receptor was obtained from ATCC (HTB-10; LGC Standards, Teddington, Middlesex, UK) and cultured at 37°C and 5% CO2 in MEM with GlutaMax I and supplemented with 10% FBS, 100 U/ml penicillin and 100 μg/ml streptomycin, 1 mM MEM sodium pyruvate, and MEM non-essential amino acids (× 1). The neuroblastoma cell line SH-SY5Y endogenously expressing the NPY Y2 receptor, kindly provided by Dr. Paolo Paganetti (Novartis, Basel, Switzerland), was cultured at 37°C and 5% CO2 in MEM/Ham's F12 with GlutaMax I and supplemented with 10% FBS, 100 U/ml penicillin and 100 μg/ml streptomycin, 1 mM MEM sodium pyruvate, and MEM non-essential amino acids (× 1). All culture reagents were from Gibco BRL, Life Technologies, (Grand Island, NY, USA).
(§2) Binding affinities of the compounds were assessed using sections of cell membrane pellets of SK-N-MC for Y1 or SH-SY5Y for Y2, as described before. Briefly, membrane pellets were prepared and stored at -80°C, and receptor autoradiography was performed on 20-μm-thick cryostat (Microm HM 500, Walldorf, Germany) sections of the membrane pellets, mounted on microscope slides and stored at -20°C as previously described for other cell lines and receptors. The slides were preincubated in Krebs-Ringer solution (NaCl 119 mM, KCl 3.2 mM, KH2PO4 1.19 mM, MgSO4 1.19 mM, NaHCO3 25 mM, CaCl2 2.53 mM, D-glucose 10 mM; pH 7.4) for 60 min at room temperature. Then, they were incubated for 120 min in the incubation solution containing the Krebs-Ringer solution, 0.1% BSA, 0.05% bacitracin, and 10,000 cpm/100 μl of the ^125I-labeled human PYY (hPYY; 2,000 Ci/mmol; Anawa, Wangen, Switzerland). Membrane pellet sections were incubated with ^125I-hPYY in increasing concentrations ranging from 0.1 nM up to 1,000 nM of non-labeled hPYY, as control, or with the compounds to be tested. After the incubation, the slides were washed two times for 5 min and then rinsed four times in ice-cold preincubation solution. After drying, the slides were exposed to Kodak films Biomax MR® for 7 days. IC50 values were calculated after quantification of the data using a computer-assisted image processing system (Analysis Imaging System, Interfocus, Mering, Germany). Tissue standards (autoradiographic [^125I] and/or [^14C] microscales, GE Healthcare, Little Chalfont, UK) containing a known amount of isotope, cross-calibrated to tissue-equivalent ligand concentrations were used for quantification.

NPY Y1 receptor [1] = biological target: T2, NPY Y1 receptor (Homo sapiens, UniProt P25929); assay: Receptor autoradiography competition binding (125I-hPYY) on SK-N-MC cell membrane pellet sections; details: for IC50: SK-N-MC membrane pellets, 125I-hPYY displacement, mean ± SEM, n ≥ 3, read-out: Binding affinity Y1 (IC50); for Y1 binding affinity in words (displacement of 125I-hPYY): SK-N-MC cell membrane pellet sections
T2 construct: SK-N-MC cells endogenously expressing Y1; host or cells: SK-N-MC
T2 sequence (P25929 1-384): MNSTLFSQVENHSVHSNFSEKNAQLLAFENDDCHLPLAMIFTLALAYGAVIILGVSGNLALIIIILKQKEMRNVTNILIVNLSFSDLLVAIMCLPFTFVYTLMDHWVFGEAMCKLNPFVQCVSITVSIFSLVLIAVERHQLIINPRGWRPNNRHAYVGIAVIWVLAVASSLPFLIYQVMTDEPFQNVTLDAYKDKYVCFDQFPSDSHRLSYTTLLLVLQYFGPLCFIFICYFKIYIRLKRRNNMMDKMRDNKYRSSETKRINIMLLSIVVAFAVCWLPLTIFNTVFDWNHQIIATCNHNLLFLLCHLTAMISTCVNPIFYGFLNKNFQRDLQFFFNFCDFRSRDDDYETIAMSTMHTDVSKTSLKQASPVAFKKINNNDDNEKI
Protocol: as §1, §2

NPY Y1 receptor [2] = biological target: T2, NPY Y1 receptor; assay: Forskolin-stimulated adenylate cyclase activity (cAMP flashplate assay) in SK-N-MC cells; format: cell-based; details: 10 μM forskolin; for Functional assay cAMP for Y1: analog 20 μM alone or with 100 nM [Leu31,Pro34]-hPYY
Protocol: Adenylate cyclase activity was determined in SK-N-MC cells using the adenylate cyclase activation flashplate assay (SMP004) from PerkinElmer (Waltham, MA, USA). SK-N-MC cells were seeded in 96-well culture plates at 25,000 cells/well and cultured for 48 h at 37°C and 5% CO2. Culture medium was then removed from the wells and fresh medium (100 μL) containing 0.5 mM 3-isobutyl-1-methylxanthine (IBMX) was added to each well. Cells were incubated for 30 min at 37°C. Medium was then removed and replaced with fresh medium containing 0.5 mM IBMX, with or without 10 μM forskolin and various concentrations of the peptides to be analyzed. Cells were incubated for 30 min at 37°C. After removal of the medium, cells were lysed and cAMP accumulation was determined using the SMP004 kit from PerkinElmer according to the instructions of the manufacturers.
Figure 4 Effect of various Y1 affine analogs on forskolin-stimulated intracellular cAMP accumulation in SK-N-MC cells. Cells were incubated for 30 min with 10 μM forskolin either alone, or with 10 μM forskolin in the presence of 20 μM or 100 nM of the reference compound [Leu^31, Pro^34]-PYY (LP-PYY), or with 10 μM forskolin in the presence of the various Y1 affine analogs either alone at a concentration of 20 μM or at a concentration of 20 μM in the presence of 100 nM LP-PYY. Intracellular cAMP accumulation was then determined as described in Methods. Results are shown as percentage of the 10 μM forskolin effect on intracellular cAMP accumulation.
Cells were incubated for 30 min with 10 μM forskolin in the presence of [Leu^31, Pro^34]-PYY (LP-PYY) at concentrations ranging between 0.01 nM and 20 μM alone (solid circle) or with 10 μM forskolin in the presence of LP-PYY at concentrations ranging between 0.01 nM and 20 μM supplemented with a fixed concentration of 20 μM of the analog 11 (solid square). […] Compound 11 given alone at a concentration of 20 μM has no effect on the accumulation of forskolin-stimulated cAMP (solid triangle).

Y5 = test system: Y5; parameters: method as in PMID 12182951; details: rats, in vivo; cited from earlier work

| Compound | IC50 (NPY Y2 receptor) [nM] | IC50 (NPY Y1 receptor [1]) [nM] | Y1 binding affinity in words (displacement of 125I-hPYY) (NPY Y1 receptor [1]) | Functional assay cAMP for Y1 (NPY Y1 receptor [2]) | further results |
| --- | --- | --- | --- | --- | --- |
| CCCC[C@H](NC(=O)[C@H](CCCNC(=N)N)NC(=O)[C@H](Cc1c[nH]c2ccccc12)NC(=O)[C@H](CSSC[C@H](NC(=O)[C@@H]1CCCN1C(=O)[C@H](CC(N)=O)NC(=O)[C@@H](N)[C@@H](C)CC)C(=O)N[C@@H](Cc1c[nH]c2ccccc12)C(=O)N[C@@H](CCCNC(=N)N)C(=O)N[C@@H](CCCC)C(=O)N[C@@H](CCCNC(=N)N)C(=O)N[C@@H](Cc1ccc(O)cc1)C(N)=O)NC(=O)[C@@H]1CCCN1C(=O)[C@H](CNC(=O)CN1CCN(CC(=O)O)CCN(CC(=O)O)CCN(CC(=O)O)CC1)NC(=O)[C@@H](N)[C@@H](C)CC)C(=O)N[C@@H](CCCNC(=N)N)C(=O)N[C@@H](Cc1ccc(O)cc1)C(N)=O [Analog 8] (I: H-I[Dap](DOTA)PCWR[Nle]RY-NH2 / II: H-INPCWR[Nle]RY-NH2; disulfide I:4-II:4) | > 1000 | 29 ± 7 |  |  |  |
| CCCC[C@H](NC(=O)[C@H](CCCNC(=N)N)NC(=O)[C@H](Cc1c[nH]c2ccccc12)NC(=O)[C@H](CSSC[C@H](NC(=O)[C@@H]1CCCN1C(=O)[C@H](CCCCN)NC(=O)[C@@H](N)[C@@H](C)CC)C(=O)N[C@@H](Cc1c[nH]c2ccccc12)C(=O)N[C@@H](CCCNC(=N)N)C(=O)N[C@@H](CCCC)C(=O)N[C@@H](CCCNC(=N)N)C(=O)N[C@@H](Cc1ccc(O)cc1)C(N)=O)NC(=O)[C@@H]1CCCN1C(=O)[C@H](CCCCN)NC(=O)[C@@H](N)[C@@H](C)CC)C(=O)N[C@@H](CCCNC(=N)N)C(=O)N[C@@H](Cc1ccc(O)cc1)C(N)=O [Analog 9] (I: H-IKPCWR[Nle]RY-NH2 / II: H-IKPCWR[Nle]RY-NH2; disulfide I:4-II:4) | > 1000 | 127 ± 50 |  |  |  |
| CCCC[C@H](NC(=O)[C@H](CCCNC(=N)N)NC(=O)[C@H](Cc1c[nH]c2ccccc12)NC(=O)[C@H](CSSC[C@H](NC(=O)[C@@H]1CCCN1C(=O)[C@H](CCCCNC(=O)CN1CCN(CC(=O)O)CCN(CC(=O)O)CCN(CC(=O)O)CC1)NC(=O)[C@@H](N)[C@@H](C)CC)C(=O)N[C@@H](Cc1c[nH]c2ccccc12)C(=O)N[C@@H](CCCNC(=N)N)C(=O)N[C@@H](CCCC)C(=O)N[C@@H](CCCNC(=N)N)C(=O)N[C@@H](Cc1ccc(O)cc1)C(N)=O)NC(=O)[C@@H]1CCCN1C(=O)[C@H](CCCCNC(=O)CN1CCN(CC(=O)O)CCN(CC(=O)O)CCN(CC(=O)O)CC1)NC(=O)[C@@H](N)[C@@H](C)CC)C(=O)N[C@@H](CCCNC(=N)N)C(=O)N[C@@H](Cc1ccc(O)cc1)C(N)=O [Analog 10] (I: H-IK(DOTA)PCWR[Nle]RY-NH2 / II: H-IK(DOTA)PCWR[Nle]RY-NH2; disulfide I:4-II:4) | > 1000 | 283 ± 52 | lower affinity displacements of ^125I-hPYY | Antagonist |  |
| CCCC[C@H](NC(=O)[C@H](CCCNC(=N)N)NC(=O)[C@H](Cc1c[nH]c2ccccc12)NC(=O)[C@H](CSSC[C@H](NC(=O)[C@@H]1CCCN1C(=O)[C@H](CC(N)=O)NC(=O)[C@@H](N)[C@@H](C)CC)C(=O)N[C@@H](Cc1c[nH]c2ccccc12)C(=O)N[C@@H](CCCNC(=N)N)C(=O)N[C@@H](CCCC)C(=O)N[C@@H](CCCNC(=N)N)C(=O)N[C@@H](Cc1ccc(O)cc1)C(N)=O)NC(=O)[C@@H]1CCCN1C(=O)[C@H](CCCCNC(=O)CN1CCN(CC(=O)O)CCN(CC(=O)O)CCN(CC(=O)O)CC1)NC(=O)[C@@H](N)[C@@H](C)CC)C(=O)N[C@@H](CCCNC(=N)N)C(=O)N[C@@H](Cc1ccc(O)cc1)C(N)=O [Analog 11] (I: H-IK(DOTA)PCWR[Nle]RY-NH2 / II: H-INPCWR[Nle]RY-NH2; disulfide I:4-II:4) | > 1000 | 13 ± 3 | high-affinity displacements of ^125I-hPYY | Antagonist | Shift of the dose response curve of [Leu31,Pro34]-hPYY to the right (NPY Y1 receptor [2]; 20 μM analog with increasing concentration of [Leu31,Pro34]-hPYY up to 20 μM): at least three orders of magnitude; Inhibition of forskolin-stimulated cAMP accumulation, analog given alone (NPY Y1 receptor [2]; analog alone at 20 μM): has no effect |
| Bis(31/31')[Cys^31, Nva^34]NPY(27-36)-NH2 |  |  |  |  | Stimulation of food intake (Y5): able to stimulate in vivo the food intake in rats |
| [Leu^31, Pro^34]-hPYY [reference compound] |  |  |  |  | Inhibition of forskolin-stimulated cAMP accumulation by agonist (NPY Y1 receptor [2]; agonist at 20 μM and 100 nM): efficiently inhibited forskolin-stimulated cAMP accumulation |
